Data published in article PMC3378808 (Biochimica et Biophysica Acta, 2012).

Experiments:
TMD-5 peptide = TMD-5 peptide (Epstein-Barr virus, UniProt P03230); experiment: NMR titration; assay type: binding; details: 500 MHz, POPC/DHPC bicelles, 37 °C
CAMK1 = CAMK1 (Homo sapiens, UniProt Q14012); experiment: Kinase profiling; assay type: biochemical; details: 50 μM compound
[1] = test system: NO production (NF-κB downstream signaling); experiment: Nitric oxide; assay type: cell-based, human; details: 100 μM, EBV positive B 721 cells, 48 h
TMD of integrin αIIb = target: T1, TMD of integrin αIIb (Homo sapiens, UniProt P08514); experiment: ToxR reporter assay of integrin αIIb TMD oligomerization; assay type: cell-based; details: Figure 3c
T1 sequence (P08514 994-1019 limits assumed): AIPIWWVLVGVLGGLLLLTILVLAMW

[2] = target: 12 representative kinases (AKT1, CAMK1, DDR2, GSK-3α, MAPK1, MET, PAK1, PDGFRB, PIM1, PKC-γ, PLK4, SRC); experiment: Kinase profiling; assay type: biochemical; details: 50 μM compound
[3] = target: coumarin labeled TMD-5 peptide (LMP-1) (Epstein-Barr virus, UniProt P03230); experiment: Coumarin fluorescence dequenching assay; assay type: binding
[4] = test system: TMD of diacylglycerol kinase (DAGK); assay type: cell-based; details: ToxR assay, Figure 3c
LMP-1 TMD-5 = LMP-1 TMD-5 (Epstein-Barr virus, UniProt P03230); assay type: cell-based
PDGFRB = PDGFRB (Homo sapiens, UniProt P09619); experiment: Kinase profiling; assay type: biochemical; details: 50 μM compound
[5] = test system: B lymphoblastoid cell line 721; details: 100 μM, B 721 cells, 48 h, WST-1
split luciferase = split luciferase (Photinus pyralis, UniProt P08659); experiment: Split luciferase false-positive control; assay type: biochemical; details: false positive evaluation
TMD-5 trimer = TMD-5 trimer (Epstein-Barr virus, UniProt P03230); experiment: Bis-Tris SDS-PAGE of TMD-5 after NMR titration; assay type: binding; details: compound to TMD-5 ratio 4:1
[6] = test system: full-length LMP-1-mediated NF-κB activity; experiment: NF-κB luciferase reporter assay in EBV positive B 721 cells; assay type: cell-based; details: Homo sapiens, B721, 48 h, read-out: IC50 of NF-κB activation
Bis-Tris SDS-PAGE = target: the molecule itself; experiment: Bis-Tris SDS-PAGE

CAMK1, sequence (Q14012 whole entry, species assumed): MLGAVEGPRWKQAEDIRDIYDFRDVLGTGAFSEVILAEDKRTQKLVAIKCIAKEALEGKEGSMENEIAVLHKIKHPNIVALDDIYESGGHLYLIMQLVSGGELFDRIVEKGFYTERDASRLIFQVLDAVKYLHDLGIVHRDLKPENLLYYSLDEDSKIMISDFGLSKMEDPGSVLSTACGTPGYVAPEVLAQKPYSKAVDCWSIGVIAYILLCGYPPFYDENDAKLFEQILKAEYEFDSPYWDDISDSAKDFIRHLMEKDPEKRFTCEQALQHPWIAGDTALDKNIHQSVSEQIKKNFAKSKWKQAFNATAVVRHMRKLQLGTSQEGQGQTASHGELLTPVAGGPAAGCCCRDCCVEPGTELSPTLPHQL
PDGFRB, sequence (P09619 33-1106, species assumed): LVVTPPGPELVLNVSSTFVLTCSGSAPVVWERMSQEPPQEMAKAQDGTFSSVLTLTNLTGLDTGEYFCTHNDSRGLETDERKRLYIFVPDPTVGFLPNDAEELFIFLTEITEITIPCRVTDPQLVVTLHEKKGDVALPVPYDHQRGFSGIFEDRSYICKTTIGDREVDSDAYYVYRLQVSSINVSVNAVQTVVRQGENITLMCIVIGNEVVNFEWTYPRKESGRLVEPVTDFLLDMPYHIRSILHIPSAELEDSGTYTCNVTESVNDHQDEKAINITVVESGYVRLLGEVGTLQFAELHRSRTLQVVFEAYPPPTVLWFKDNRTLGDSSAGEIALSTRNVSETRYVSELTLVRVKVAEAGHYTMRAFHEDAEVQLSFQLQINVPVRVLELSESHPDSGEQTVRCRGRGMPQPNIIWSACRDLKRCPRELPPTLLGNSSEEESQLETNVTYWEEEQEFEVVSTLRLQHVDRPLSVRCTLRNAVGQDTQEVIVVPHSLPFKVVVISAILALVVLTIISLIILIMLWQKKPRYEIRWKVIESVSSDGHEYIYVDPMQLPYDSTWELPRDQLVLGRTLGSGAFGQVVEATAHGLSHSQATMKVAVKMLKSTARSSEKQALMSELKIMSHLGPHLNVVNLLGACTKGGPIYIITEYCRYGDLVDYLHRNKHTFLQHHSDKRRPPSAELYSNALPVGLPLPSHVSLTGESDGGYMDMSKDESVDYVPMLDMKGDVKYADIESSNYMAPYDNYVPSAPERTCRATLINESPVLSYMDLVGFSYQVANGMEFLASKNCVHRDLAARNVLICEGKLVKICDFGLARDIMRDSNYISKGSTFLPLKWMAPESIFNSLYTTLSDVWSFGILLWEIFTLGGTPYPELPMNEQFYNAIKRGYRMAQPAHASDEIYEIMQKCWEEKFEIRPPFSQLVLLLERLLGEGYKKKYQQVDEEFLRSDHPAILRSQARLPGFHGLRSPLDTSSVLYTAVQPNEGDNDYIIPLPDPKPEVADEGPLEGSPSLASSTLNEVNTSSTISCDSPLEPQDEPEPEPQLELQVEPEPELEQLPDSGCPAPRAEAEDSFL
split luciferase, sequence (P08659 2-416 limits assumed): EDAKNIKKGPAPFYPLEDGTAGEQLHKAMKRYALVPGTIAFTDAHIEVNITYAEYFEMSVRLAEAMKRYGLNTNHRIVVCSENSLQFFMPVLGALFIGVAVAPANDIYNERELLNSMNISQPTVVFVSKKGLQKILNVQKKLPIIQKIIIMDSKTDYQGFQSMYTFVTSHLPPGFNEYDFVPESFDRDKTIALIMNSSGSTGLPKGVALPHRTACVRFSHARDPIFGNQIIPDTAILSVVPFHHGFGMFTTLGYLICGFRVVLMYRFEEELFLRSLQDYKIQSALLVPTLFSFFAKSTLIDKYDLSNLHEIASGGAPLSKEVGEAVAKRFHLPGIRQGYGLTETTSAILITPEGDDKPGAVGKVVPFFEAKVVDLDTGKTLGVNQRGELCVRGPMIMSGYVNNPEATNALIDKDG

Molecule	chemical shift changes of TMD-5 on titration (TMD-5 peptide)	inhibition of CAMK1 (CAMK1)	effect on NO over-production [1]	inhibition of integrin αIIb TMD oligomerization (TMD of integrin αIIb)	kinase activity retained (ten out of twelve kinases) [2] [%]	coumarin labeled TMD-5 fluorescence increase without detergent ([3]; in the absence of C14 betaine detergent)	inhibition of DAGK TMD oligomerization [4]	IC50 (LMP-1 TMD-5; read-out: IC50 to disrupt TMD-5 oligomerization in whole cells, ToxR assay, dose-dependent titration) [µM]	inhibition of PDGFRB (PDGFRB)	cytotoxicity / growth inhibition [5]	inhibition of luciferase control (split luciferase)	disruption of TMD-5 trimer to monomer on SDS-PAGE (TMD-5 trimer)	disruption of TMD-5 association (coumarin fluorescence dequenching), in words ([3]; 100 nM coumarin-labeled TMD-5, 150 μM C14 betaine, pH 7.4)	inhibition of TMD-5 oligomerization (ToxR assay), in words (LMP-1 TMD-5; Figure 3e/3f)	IC50 [6] [µM]	stoichiometry N (Bis-Tris SDS-PAGE)
N=C(N)c1ccc(C=Cc2ccc(C(=N)N)cc2O)cc1.O=S(=O)(O)CCO.O=S(=O)(O)CCO [Compound 1]	induced chemical shift changes at a number of sites including the deeply buried Asp 150	approximately 20%	suppress NO over-production	No apparent oligomerization inhibition	> 95	failed to cause coumarin labeled TMD-5 fluorescence increase	did not inhibit DAGK TMD oligomerization	90 ± 10.5	approximately 20%	No apparent growth inhibition	did not inhibit luciferase control	disrupts the TMD-5 trimer				
C(=Cc1ccc(-c2nc(-c3ccccc3)nc(-c3ccccc3)n2)cc1)c1ccc(-c2nc(-c3ccccc3)nc(-c3ccccc3)n2)cc1 [Compound 6, 2,2'-(1,2-ethenediyldi-4,1-phenylene)bis(4,6-diphenyl-1,3,5-triazine), reference compound]			no significant inhibition activity										did not inhibit TMD-5 oligomerization	did not inhibit TMD-5 oligomerization	180 ± 27.5	
GGPGWQLLAFFLAFFLDLILLIIALYLGPGG [TMD-5 peptide (GGPG-WQLLAFFLAFFLDLILLIIALYL-GPGG) derived from LMP-1]																3
